# Data from US20250381179A1, “CHROMAN-BASED COMPOUNDS FOR TREATING CANCER” (priority 2024, published 2025).
# Assay: Phase 1 study: safety and tolerability (TEAEs, NCI CTCAE v5.0)
# Protocol: The study employed an open-label, 3+3 design, with the option of adding backfill patients to each cohort cleared and deemed safe. […] Tumor responses were assessed every 2 cycles using RECIST v1.1 criteria. […] The study also involves an ongoing dose escalation study where participants receive 100 mg, 200 mg, 300 mg, 400 mg, and 600 mg once daily (QD) dose levels.
# Safety was assessed through the analysis of the reported incidence of treatment-emergent AEs. Treatment-emergent AEs are those with an onset on or after the initiation of therapy and will be graded according to NCI CTCAE Version 5.0. Other safety endpoints, including laboratory results, vital signs, and ECG findings, were summarized for all patients in the Safety set.
# [1] = Cohort 2/200 mg QD, patient 1, first listed event
# [2] = Cohort 2/200 mg QD, patient 1, second listed event
compound,measurement,setting,value
"O=C1CC[C@H](N2Cc3cc(N4CCN(CC5CCN(c6ccc([C@@H]7c8ccc(O)cc8OC[C@@H]7c7ccccc7)cc6F)CC5)CC4)ccc3C2=O)C(=O)N1 [compound (1-g), (S)-3-(5-(4-((1-(2-fluoro-4-((3S,4R)-7-hydroxy-3-phenylchroman-4-yl)phenyl)piperidin-4-yl)methyl)piperazin-1-yl)-1-oxoisoindolin-2-yl)piperidine-2,6-dione]",TEAE: Nausea,400 mg QD (N = 6),1 (16.7) n (%)
same,TEAE: Neutrophil Count Decreased,400 mg QD (N = 6),2 (33.3) n (%)
same,TEAE: Oedema Peripheral,400 mg QD (N = 6),1 (16.7) n (%)
same,TEAE: Ophthalmic Migraine,400 mg QD (N = 6),0 n (%)
same,TEAE: Oral Pain,400 mg QD (N = 6),0 n (%)
same,TEAE: Pain In Extremity,400 mg QD (N = 6),0 n (%)
same,TEAE: Pharyngitis,400 mg QD (N = 6),0 n (%)
same,TEAE: Platelet Count Decreased,400 mg QD (N = 6),1 (16.7) n (%)
same,TEAE: Pleural Effusion,400 mg QD (N = 6),0 n (%)
same,TEAE: Pneumonia,400 mg QD (N = 6),0 n (%)
same,TEAE: Productive Cough,400 mg QD (N = 6),0 n (%)
same,TEAE: Rash Maculo-Papular,400 mg QD (N = 6),0 n (%)
same,TEAE: Rhinitis Allergic,400 mg QD (N = 6),0 n (%)
same,TEAE: Rib Fracture,400 mg QD (N = 6),0 n (%)
same,TEAE: Seizure,400 mg QD (N = 6),0 n (%)
same,TEAE: Sepsis,400 mg QD (N = 6),0 n (%)
same,TEAE: Tremor,400 mg QD (N = 6),0 n (%)
same,TEAE: Upper Respiratory Tract Infection,400 mg QD (N = 6),0 n (%)
same,TEAE: Urinary Tract Infection,400 mg QD (N = 6),0 n (%)
same,TEAE: Vaginal Haemorrhage,400 mg QD (N = 6),0 n (%)
same,TEAE: Vomiting,400 mg QD (N = 6),0 n (%)
same,related TEAE: Alopecia,400 mg QD (N = 6),1 (16.7) n (%)
same,related TEAE: Arthralgia,400 mg QD (N = 6),0 n (%)
same,related TEAE: Constipation,400 mg QD (N = 6),1 (16.7) n (%)
same,related TEAE: Diarrhea,400 mg QD (N = 6),1 (16.7) n (%)
same,related TEAE: Dysgeusia,400 mg QD (N = 6),1 (16.7) n (%)
same,related TEAE: Eructation,400 mg QD (N = 6),1 (16.7) n (%)
same,related TEAE: Fatigue,400 mg QD (N = 6),0 n (%)
same,related TEAE: Flatulence,400 mg QD (N = 6),1 (16.7) n (%)
same,related TEAE: Hot Flush,400 mg QD (N = 6),0 n (%)
same,related TEAE: Hyperhidrosis,400 mg QD (N = 6),0 n (%)
same,related TEAE: Nail Disorder,400 mg QD (N = 6),1 (16.7) n (%)
same,related TEAE: Nausea,400 mg QD (N = 6),1 (16.7) n (%)
same,related TEAE: Neutrophil Count Decreased,400 mg QD (N = 6),2 (33.3) n (%)
same,related TEAE: Platelet Count Decreased,400 mg QD (N = 6),1 (16.7) n (%)
same,related TEAE: Tremor,400 mg QD (N = 6),0 n (%)
same,related TEAE: Vomiting,400 mg QD (N = 6),0 n (%)
same,Patients with Any Compound (1-g) related TEAE,600 mg QD (N = 4),2 (50.0) n (%)
same,Patients with Any TEAE,600 mg QD (N = 4),2 (50.0) n (%)
same,TEAE: Abdominal Distension,600 mg QD (N = 4),0 n (%)
same,TEAE: Abdominal Pain,600 mg QD (N = 4),0 n (%)
same,TEAE: Acute Kidney Injury,600 mg QD (N = 4),0 n (%)
same,TEAE: Adrenal Insufficiency,600 mg QD (N = 4),0 n (%)
same,TEAE: Alopecia,600 mg QD (N = 4),0 n (%)
same,TEAE: Anaemia,600 mg QD (N = 4),0 n (%)
same,TEAE: Anxiety,600 mg QD (N = 4),0 n (%)
same,TEAE: Arthralgia,600 mg QD (N = 4),0 n (%)
same,TEAE: Axillary Vein Thrombosis,600 mg QD (N = 4),0 n (%)
same,TEAE: Back Pain,600 mg QD (N = 4),1 (25.0) n (%)
same,TEAE: Basal Cell Carcinoma,600 mg QD (N = 4),0 n (%)
same,TEAE: Breast Pain,600 mg QD (N = 4),0 n (%)
same,TEAE: Confusional State,600 mg QD (N = 4),0 n (%)
same,TEAE: Constipation,600 mg QD (N = 4),1 (25.0) n (%)
same,TEAE: Cough,600 mg QD (N = 4),0 n (%)
same,TEAE: Covid-19 Pneumonia,600 mg QD (N = 4),0 n (%)
same,TEAE: Dehydration,600 mg QD (N = 4),0 n (%)
same,TEAE: Diarrhoea,600 mg QD (N = 4),0 n (%)
same,TEAE: Dizziness,600 mg QD (N = 4),0 n (%)
same,TEAE: Dysgeusia,600 mg QD (N = 4),0 n (%)
same,TEAE: Dyspepsia,600 mg QD (N = 4),0 n (%)
same,TEAE: Dyspnoea,600 mg QD (N = 4),0 n (%)
same,TEAE: Dysuria,600 mg QD (N = 4),0 n (%)
same,TEAE: Eructation,600 mg QD (N = 4),0 n (%)
same,TEAE: Fall,600 mg QD (N = 4),0 n (%)
same,TEAE: Fatigue,600 mg QD (N = 4),0 n (%)
same,TEAE: Flatulence,600 mg QD (N = 4),0 n (%)
same,TEAE: Fracture,600 mg QD (N = 4),0 n (%)
same,TEAE: Fungal Infection,600 mg QD (N = 4),0 n (%)
same,TEAE: Haematoma,600 mg QD (N = 4),0 n (%)
same,TEAE: Hot Flush,600 mg QD (N = 4),1 (25.0) n (%)
same,TEAE: Hyperglycaemia,600 mg QD (N = 4),0 n (%)
same,TEAE: Hyperhidrosis,600 mg QD (N = 4),1 (25.0) n (%)
same,TEAE: Hypokalaemia,600 mg QD (N = 4),0 n (%)
same,TEAE: Hypotension,600 mg QD (N = 4),0 n (%)
same,TEAE: Influenza Like Illness,600 mg QD (N = 4),0 n (%)
same,TEAE: Insomnia,600 mg QD (N = 4),0 n (%)
same,TEAE: Lower Respiratory Tract Congestion,600 mg QD (N = 4),0 n (%)
same,TEAE: Lymphocyte Count Decreased,600 mg QD (N = 4),0 n (%)
same,TEAE: Muscle Spasm,600 mg QD (N = 4),0 n (%)
same,TEAE: Muscular Weakness,600 mg QD (N = 4),0 n (%)
same,TEAE: Musculoskeletal Stiffness,600 mg QD (N = 4),0 n (%)
same,TEAE: Nail Disorder,600 mg QD (N = 4),0 n (%)
same,TEAE: Nasal Congestion,600 mg QD (N = 4),0 n (%)
same,TEAE: Nausea,600 mg QD (N = 4),0 n (%)
same,TEAE: Neutrophil Count Decreased,600 mg QD (N = 4),1 (25.0) n (%)
same,TEAE: Oedema Peripheral,600 mg QD (N = 4),0 n (%)
same,TEAE: Ophthalmic Migraine,600 mg QD (N = 4),0 n (%)
same,TEAE: Oral Pain,600 mg QD (N = 4),0 n (%)
same,TEAE: Pain In Extremity,600 mg QD (N = 4),0 n (%)
same,TEAE: Pharyngitis,600 mg QD (N = 4),0 n (%)
same,TEAE: Platelet Count Decreased,600 mg QD (N = 4),0 n (%)
same,TEAE: Pleural Effusion,600 mg QD (N = 4),0 n (%)
same,TEAE: Pneumonia,600 mg QD (N = 4),0 n (%)
same,TEAE: Productive Cough,600 mg QD (N = 4),0 n (%)
same,TEAE: Rash Maculo-Papular,600 mg QD (N = 4),0 n (%)
same,TEAE: Rhinitis Allergic,600 mg QD (N = 4),0 n (%)
same,TEAE: Rib Fracture,600 mg QD (N = 4),0 n (%)
same,TEAE: Seizure,600 mg QD (N = 4),0 n (%)
same,TEAE: Sepsis,600 mg QD (N = 4),0 n (%)
same,TEAE: Tremor,600 mg QD (N = 4),0 n (%)
same,TEAE: Upper Respiratory Tract Infection,600 mg QD (N = 4),0 n (%)
same,TEAE: Urinary Tract Infection,600 mg QD (N = 4),0 n (%)
same,TEAE: Vaginal Haemorrhage,600 mg QD (N = 4),0 n (%)
same,TEAE: Vomiting,600 mg QD (N = 4),0 n (%)
same,related TEAE: Alopecia,600 mg QD (N = 4),0 n (%)
same,related TEAE: Arthralgia,600 mg QD (N = 4),0 n (%)
same,related TEAE: Constipation,600 mg QD (N = 4),1 (25.0) n (%)
same,related TEAE: Diarrhea,600 mg QD (N = 4),0 n (%)
same,related TEAE: Dysgeusia,600 mg QD (N = 4),0 n (%)
same,related TEAE: Eructation,600 mg QD (N = 4),0 n (%)
same,related TEAE: Fatigue,600 mg QD (N = 4),0 n (%)
same,related TEAE: Flatulence,600 mg QD (N = 4),0 n (%)
same,related TEAE: Hot Flush,600 mg QD (N = 4),1 (25.0) n (%)
same,related TEAE: Hyperhidrosis,600 mg QD (N = 4),1 (25.0) n (%)
same,related TEAE: Nail Disorder,600 mg QD (N = 4),0 n (%)
same,related TEAE: Nausea,600 mg QD (N = 4),0 n (%)
same,related TEAE: Neutrophil Count Decreased,600 mg QD (N = 4),1 (25.0) n (%)
same,related TEAE: Platelet Count Decreased,600 mg QD (N = 4),0 n (%)
same,related TEAE: Tremor,600 mg QD (N = 4),0 n (%)
same,related TEAE: Vomiting,600 mg QD (N = 4),0 n (%)
same,correlation of TEAE incidence with dose level,100-600 mg QD,did not seem to correlate with increasing dose levels
same,dose limiting toxicities,"100-600 mg QD, 37 patients",No dose limiting toxicities were observed
same,participants with TEAEs that led to dose interruption,Cohort 1 (100 mg QD),3 participants
same,CTCAE Grade of TEAE leading to dose interruption: Fall,"Cohort 1/100 mg QD, patient 1",2
same,Duration of TEAE leading to dose interruption: Fall,"Cohort 1/100 mg QD, patient 1",1 days
same,"Related to Compound (1-g), TEAE leading to dose interruption: Fall","Cohort 1/100 mg QD, patient 1",No
same,CTCAE Grade of TEAE leading to dose interruption: Fatigue,"Cohort 1/100 mg QD, patient 2",3
same,"Related to Compound (1-g), TEAE leading to dose interruption: Fatigue","Cohort 1/100 mg QD, patient 2",No
same,CTCAE Grade of TEAE leading to dose interruption: Confusional state,"Cohort 1/100 mg QD, patient 3",2
same,Duration of TEAE leading to dose interruption: Confusional state,"Cohort 1/100 mg QD, patient 3",2 days
same,"Related to Compound (1-g), TEAE leading to dose interruption: Confusional state","Cohort 1/100 mg QD, patient 3",No
same,participants with TEAEs that led to dose interruption,Cohort 2 (200 mg QD),4 participants
same,CTCAE Grade of TEAE leading to dose interruption: Anaemia,[1],2
same,Duration of TEAE leading to dose interruption: Anaemia,[1],28 days
same,"Related to Compound (1-g), TEAE leading to dose interruption: Anaemia",[1],No
same,CTCAE Grade of TEAE leading to dose interruption: Anaemia,[2],3
same,"Related to Compound (1-g), TEAE leading to dose interruption: Anaemia",[2],No
same,CTCAE Grade of TEAE leading to dose interruption: Fatigue,"Cohort 2/200 mg QD, patient 2",2
same,CTCAE Grade of TEAE leading to dose interruption: Muscular weakness,"Cohort 2/200 mg QD, patient 2",2
same,"Related to Compound (1-g), TEAE leading to dose interruption: Fatigue","Cohort 2/200 mg QD, patient 2",No
same,"Related to Compound (1-g), TEAE leading to dose interruption: Muscular weakness","Cohort 2/200 mg QD, patient 2",No
same,CTCAE Grade of TEAE leading to dose interruption: Seizure,"Cohort 2/200 mg QD, patient 3",3
same,CTCAE Grade of TEAE leading to dose interruption: Sepsis,"Cohort 2/200 mg QD, patient 3",3
same,Duration of TEAE leading to dose interruption: Seizure,"Cohort 2/200 mg QD, patient 3",20 days
same,Duration of TEAE leading to dose interruption: Sepsis,"Cohort 2/200 mg QD, patient 3",20 days
same,"Related to Compound (1-g), TEAE leading to dose interruption: Seizure","Cohort 2/200 mg QD, patient 3",No
same,"Related to Compound (1-g), TEAE leading to dose interruption: Sepsis","Cohort 2/200 mg QD, patient 3",No
same,CTCAE Grade of TEAE leading to dose interruption: Pain in extremity,"Cohort 2/200 mg QD, patient 4, first listed event",1
